Experimental data: patent publication US10696692B2, “Amido-benzyl sulfone and sulfoxide derivates” (Forma TM, LLC, priority 2012, dated 2020)
Read-outs that look alike come from different tables or passages of the source.

Key:
NAMPT = NAMPT (Homo sapiens (Human), UniProt P43490); assay: Assay 1: Biochemical Inhibition Assay (NAMPT enzymatic reaction, NMN quantified by mass spectrometry); settings: read-out: Biochemical (IC50);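 also: recombinant His-tagged human NAMPT preincubated with compound 15 min, then reacted 30 min at rt with 1 µM NAM, 100 µM PRPP, 2.5 mM ATP, NMN product read by RapidFire MS, normalized to L-Cystathionine internal standard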
A2780 cells = assay: Assay 2: In-Vitro Cell Proliferation Assay (A2780 cells, SRB readout, 72 hours); assay type: cell-based; settings: A2780 cells, 72 hours, SRB, read-out: Cell Proliferation (IC50);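 also: viable cells counted via sulforhodamine B staining, absorbance at 570 nm, after 72 h exposure at 37 °C, DMSO 0.1% as control, media-only background subtracted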

NAMPT, sequence (P43490 whole entry): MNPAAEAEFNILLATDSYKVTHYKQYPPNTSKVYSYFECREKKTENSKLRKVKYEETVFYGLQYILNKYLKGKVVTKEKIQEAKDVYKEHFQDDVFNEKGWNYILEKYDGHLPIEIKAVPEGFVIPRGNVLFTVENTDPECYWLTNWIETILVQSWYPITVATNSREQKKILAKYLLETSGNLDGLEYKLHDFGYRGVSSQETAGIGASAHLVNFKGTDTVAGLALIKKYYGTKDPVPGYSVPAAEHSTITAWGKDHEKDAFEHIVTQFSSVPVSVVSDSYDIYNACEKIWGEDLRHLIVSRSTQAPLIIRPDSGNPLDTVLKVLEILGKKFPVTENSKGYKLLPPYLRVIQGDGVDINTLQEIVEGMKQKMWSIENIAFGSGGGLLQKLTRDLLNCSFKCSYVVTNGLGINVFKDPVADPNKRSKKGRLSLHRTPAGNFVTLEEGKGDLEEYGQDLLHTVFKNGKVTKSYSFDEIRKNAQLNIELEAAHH

Molecule O=C(NCc1ccc(S(=O)(=O)C2CCN(CC(F)(F)F)CC2)cc1)c1cc2cnccc2[nH]1 [Example 66, 1H-Pyrrolo[3,2-c]pyridine-2-carboxylic acid 4-[1-(2,2,2-trifluoro-ethyl)-piperidine-4-sulfonyl]-benzylamide] has an IC50 (NAMPT) of 15.4 nM and an IC50 (A2780 cells) of 3.2 nM.

With O=C(NCc1ccc(S(=O)(=O)[C@@H]2CCOC2)cc1)c1cnc2[nH]ncc2c1 [Example 233, N-[[4-((3R)-tetrahydrofuran-3-yl]sulfonylphenyl]methyl]-1H-pyrazolo[3,4-b]pyridine-5-carboxamide] the IC50 (NAMPT) was 227 nM and the IC50 (A2780 cells; Homo sapiens, A2780, 72 h) was 1590 nM.

With O=C(NCc1ccc(S(=O)(=O)C2CCN(C3COC3)CC2)cc1)c1cc2ccncc2s1 [Example 252, N-[[4-[[1-(oxetan-3-yl)-4-piperidyl]sulfonyl]phenyl]methyl]thieno[2,3-c]pyridine-2-carboxamide] the IC50 (NAMPT) was 4.27 nM and the IC50 (A2780 cells) was 1.48 nM.

With O=C(NCc1ccc(S(=O)(=O)N2C[C@@H]3CC(F)(F)[C@@H]3C2)cc1)c1ccc2nccn2c1 (racemic) [Example 147, cis-Imidazo[1,2-a]pyridine-6-carboxylic acid 4-(6,6-difluoro-3-aza-bicyclo[3.2.0]heptane-3-sulfonyl)-benzylamide] the IC50 (NAMPT) was 13.7 nM and the IC50 (A2780 cells; Homo sapiens, A2780, 72 h) was 12.5 nM.

Molecule CCC(=O)N1CCC(S(=O)(=O)c2ccc(CNC(=O)c3cc4ccncc4o3)cc2)CC1 [Example 312, N-[[4-[(1-propanoyl-4-piperidyl)sulfonyl]phenyl]methyl]furo[2,3-c]pyridine-2-carboxamide] has an IC50 (NAMPT) of 113 nM and an IC50 (A2780 cells; Homo sapiens, A2780, 72 h) of 48.9 nM.

CN1CCC2(C1)CN(S(=O)(=O)c1ccc(CNC(=O)c3ccc4nccn4c3)cc1)C2 [Example 216, N-[[4-[(7-methyl-2,7-diazaspiro[3.4]octan-2-yl)sulfonyl]phenyl]methyl] imidazo[1,2-a]pyridine-6-carboxamide] showed an IC50 (NAMPT) of 30.4 nM and an IC50 (A2780 cells; Homo sapiens, A2780, 72 h) of 13.7 nM.

In the case of CN1CCOC2(C1)CN(S(=O)(=O)c1ccc(CNC(=O)c3ccc4nccn4c3)cc1)C2 [Example 272, N-[[4-[(8-methyl-5-oxa-2,8-diazaspiro[3.5]nonan-2-yl)sulfonyl]phenyl]methyl] imidazo[1,2-a]pyridine-6-carboxamide], the IC50 (NAMPT) is reported as 33.6 nM and the IC50 (A2780 cells; Homo sapiens, A2780, 72 h) is reported as 10 nM.

With O=C(NCc1ccc(S(=O)(=O)N2CC3CCC(C2)O3)cc1)c1cc2ccncc2o1 [Example 305, N-[[4-(8-oxa-3-azabicyclo[3.2.1]octan-3-ylsulfonyl)phenyl]methyl]furo [2,3-c]pyridine-2-carboxamide] the IC50 (NAMPT) was 41.4 nM and the IC50 (A2780 cells; Homo sapiens, A2780, 72 h) was 17.8 nM.

O=C(NCc1ccc(S(=O)(=O)N2CC3(CCCNC3)C2)cc1)c1ccc2nccn2c1 [Example 253, N-[[4-(2,8-diazaspiro[3,5]nonan-2-ylsulfonyl)phenyl]methyl] imidazo[1,2-a]pyridine-6-carboxamide] was tested, and the IC50 (NAMPT) was 27.4 nM and the IC50 (A2780 cells; Homo sapiens, A2780, 72 h) was 31.3 nM.

O=C(NCc1ccc(S(=O)(=O)N2CC(F)(F)C2)cc1)c1cnc2[nH]ncc2c1 [Example 281, N-[[4-(3,3-difluoroazetidin-1-yl)sulfonylphenyl]methyl]-1H-pyrazolo[3,4-b]pyridine-5-carboxamide] showed an IC50 (NAMPT) of 95.6 nM and an IC50 (A2780 cells; Homo sapiens, A2780, 72 h) of 378 nM.

CN1CCC([S+]([O-])c2ccc(CNC(=O)N3Cc4ccncc4C3)cc2)CC1 (stereo not drawn) [Example 372, N-[[4-[(1-methyl-4-piperidyl)sulfinyl]phenyl]methyl]-1,3-dihydropyrrolo[3,4-c]pyridine-2-carboxamide] was tested, and the IC50 (NAMPT) was 57.6 nM and the IC50 (A2780 cells; Homo sapiens, A2780, 72 h) was 61.2 nM.

Molecule O=C(NCc1ccc(S(=O)(=O)N2CC(C3CCCNC3)c3ccccc32)cc1)c1ccc2nccn2c1 (stereo not drawn) [Example 330, N-[[4-[3-(3-piperidyl)indolin-1-yl]sulfonylphenyl]methyl] imidazo[1,2-a]pyridine-6-carboxamide] has an IC50 (NAMPT) of 22.2 nM and an IC50 (A2780 cells; Homo sapiens, A2780, 72 h) of 42.8 nM.

O=C(NCc1ccc(S(=O)(=O)C2CCN(CC(F)(F)F)CC2)cc1)c1ccc2nccn2c1 [Example 65, Imidazo[1,2-a]pyridine-6-carboxylic acid 4-[1-(2,2,2-trifluoro-ethyl)-piperidine-4-sulfonyl]-benzylamide] was tested, and the IC50 (NAMPT) was 12.4 nM and the IC50 (A2780 cells) was 2.1 nM.

For O=C(NCc1ccc(S(=O)(=O)N2CC3CC(F)(F)CC3C2)cc1)c1cnc2[nH]ncc2c1 (racemic) [Example 177, cis-1H-Pyrazolo[3,4-b]pyridine-5-carboxylic acid 4-(5,5-difluoro-hexahydro-cyclopenta[c]pyrrole-2-sulfonyl)-benzylamide], the IC50 (NAMPT) was 20.3 nM and the IC50 (A2780 cells; Homo sapiens, A2780, 72 h) was 105 nM.

For CN1CCC([S+]([O-])c2ccc(CNC(=O)c3ccc4nccn4c3)cc2)CC1 (stereo not drawn) [Example 371, N-[[4-[(1-methyl-4-piperidyl)sulfinyl]phenyl]methyl]imidazo[1,2-a]pyridine-6-carboxamide], the IC50 (NAMPT) was 38 nM and the IC50 (A2780 cells; Homo sapiens, A2780, 72 h) was 12.4 nM.

In the case of O=C(NCc1ccc(S(=O)(=O)N2CCCCC2)cc1)c1ccn2nccc2n1 [Example 58, Pyrazolo[1,5-a]pyrimidine-5-carboxylic acid 4-(piperidine-1-sulfonyl)-benzylamide], the IC50 (NAMPT) is reported as 240 nM and the IC50 (A2780 cells; Homo sapiens, A2780, 72 h) is reported as 2000 nM.

O=C(NCc1ccc(S(=O)(=O)C2CCN(CC(F)(F)F)CC2)cc1)c1cnc2nccn2c1 [Example 64, Imidazo[1,2-a]pyrimidine-6-carboxylic acid 4-[1-(2,2,2-trifluoro-ethyl)-piperidine-4-sulfonyl]-benzylamide] gave an IC50 (NAMPT) of 3.7 nM and an IC50 (A2780 cells) of 8.8 nM.

With O=C(NCc1ccc(S(=O)(=O)N2CCCC(O)C2)cc1)c1cc2ccncc2o1 (racemic) [Example 34, Furo[2,3-c]pyridine-2-carboxylic acid 4-(3-hydroxy-piperidine-1-sulfonyl)-benzylamide] the IC50 (NAMPT) was 25.7 nM and the IC50 (A2780 cells; Homo sapiens, A2780, 72 h) was 51.9 nM.

O=C(NCc1ccc(S(=O)(=O)N2CCC(N3CCCC3)CC2)cc1)c1ccc2nccn2c1 [Example 97, Imidazo[1,2-a]pyridine-6-carboxylic acid 4-(4-pyrrolidin-1-yl-piperidine-1-sulfonyl)-benzylamide] gave an IC50 (NAMPT) of 14.4 nM and an IC50 (A2780 cells; Homo sapiens, A2780, 72 h) of 5.4 nM.

In the case of O=C(NCc1ccc(S(=O)(=O)N2C[C@@H]3C[C@H]2CO3)cc1)c1cnc2[nH]ncc2c1 (racemic) [Example 172, cis-1H-Pyrazolo[3,4-b]pyridine-5-carboxylic acid 4-(2-oxa-5-aza-bicyclo[2.2.1]heptane-5-sulfonyl)-benzylamide], the IC50 (NAMPT) is reported as 211 nM and the IC50 (A2780 cells; Homo sapiens, A2780, 72 h) is reported as 354 nM.

In the case of CCCN1CCC([S+]([O-])c2ccc(CNC(=O)c3cc4ccncc4o3)cc2)CC1 (stereo not drawn) [Example 358, N-[[4-[(1-propyl-4-piperidyl)sulfinyl]phenyl]methyl]furo[2,3-c]pyridine-2-carboxamide], the IC50 (NAMPT) is reported as 19.3 nM and the IC50 (A2780 cells) is reported as 4.58 nM.

With O=C(NCc1ccc(S(=O)(=O)N2CC3CNCC(C2)O3)cc1)c1ccc2nccn2c1 [Example 333, N-[[4-(9-oxa-3,7-diazabicyclo[3.3.1]nonan-3-ylsulfonyl)phenyl]methyl] imidazo[1,2-a]pyridine-6-carboxamide] the IC50 (NAMPT) was 320 nM and the IC50 (A2780 cells; Homo sapiens, A2780, 72 h) was 286 nM.

O=C(NCc1ccc(S(=O)(=O)[C@H]2CCOC2)cc1)c1cc2cnccc2[nH]1 [Example 221, N-[[4-[(3S)-tetrahydrofuran-3-yl]sulfonylphenyl]methyl]-1H-pyrrolo[3,2-c]pyridine-2-carboxamide] showed an IC50 (NAMPT) of 125 nM and an IC50 (A2780 cells; Homo sapiens, A2780, 72 h) of 347 nM.

Work on O=C(NCc1ccc(S(=O)(=O)C2CCNCC2)cc1)c1ccc2nccn2c1 [Example 234, N-[[4-(4-piperidylsulfonyl)phenyl]methyl]imidazo[1,2-a]pyridine-6-carboxamide] yielded an IC50 (NAMPT) of 90.6 nM and an IC50 (A2780 cells; Homo sapiens, A2780, 72 h) of 130 nM.

Molecule O=C(NCc1ccc(S(=O)(=O)N2CCC(NCC(F)F)CC2)cc1)c1cnc2[nH]ncc2c1 [Example 37, 1H-Pyrazolo[3,4-b]pyridine-5-carboxylic acid 4-[4-(2,2-difluoro-ethylamino)-piperidine-1-sulfonyl]-benzylamide] has an IC50 (NAMPT) of 44.1 nM and an IC50 (A2780 cells; Homo sapiens, A2780, 72 h) of 13.9 nM.

Work on O=C(NCc1ccc(S(=O)(=O)C2CCCOC2)cc1)c1cc2ccncc2o1 (racemic) [Example 168, Furo[2,3-c]pyridine-2-carboxylic acid 4-(tetrahydro-pyran-3-sulfonyl)-benzylamide] yielded an IC50 (NAMPT) of 30.4 nM and an IC50 (A2780 cells; Homo sapiens, A2780, 72 h) of 50.3 nM.

Molecule O=C(NCc1ccc(S(=O)(=O)N2CCC[C@@H](O)C2)cc1)c1cc2ccncc2o1 [Example 82, Furo[2,3-c]pyridine-2-carboxylic acid 4-((R)-3-hydroxy-piperidine-1-sulfonyl)-benzylamide] has an IC50 (NAMPT) of 26.1 nM and an IC50 (A2780 cells) of 34.8 nM.

With O=C(NCc1ccc(S(=O)(=O)C2CCN(CC(F)(F)F)CC2)cc1)c1cnc2nccn2c1 [Example 209, N-[[4-[[1-(2,2,2-trifluoroethyl)-4-piperidyl]sulfonyl]phenyl]methyl]imidazo[1,2-a]pyrimidine-6-carboxamide] the IC50 (NAMPT) was 3.72 nM and the IC50 (A2780 cells; Homo sapiens, A2780, 72 h) was 8.84 nM.

Work on O=C(NCc1ccc(S(=O)(=O)C2CCN(C3COC3)CC2)cc1)c1cc2ccncc2s1 [Example 120, Thieno[2,3-c]pyridine-2-carboxylic acid 4-(1-oxetan-3-yl-piperidine-4-sulfonyl)-benzylamide] yielded an IC50 (NAMPT) of 4.3 nM and an IC50 (A2780 cells; Homo sapiens, A2780, 72 h) of 1.5 nM.

O=C(NCc1ccc(S(=O)(=O)N2CCOCC2)cc1)c1cnc2[nH]ncc2c1 [Example 9, 1H-Pyrazolo[3,4-b]pyridine-5-carboxylic acid 4-(morpholine-4-sulfonyl)-benzylamide] showed an IC50 (NAMPT) of 105 nM and an IC50 (A2780 cells; Homo sapiens, A2780, 72 h) of 278 nM.

With O=C(NCc1ccc([S+]([O-])C2CCN(C3CCOCC3)CC2)cc1)c1cnc2[nH]ncc2c1 (stereo not drawn) [Example 381, N-[[4-[(1-tetrahydropyran-4-yl-4-piperidyl)sulfinyl]phenyl]methyl]-1H-pyrazolo[3,4-b]pyridine-5-carboxamide] the IC50 (NAMPT) was 290 nM and the IC50 (A2780 cells; Homo sapiens, A2780, 72 h) was 201 nM.

CC(C)CN1CCC([S+]([O-])c2ccc(CNC(=O)c3cnc4nccn4c3)cc2)CC1 (stereo not drawn) [Example 188, N-[[4-[(1-isobutyl-4-piperidyl)sulfinyl]phenyl]methyl]imidazo[1,2-a]pyrimidine-6-carboxamide] showed an IC50 (NAMPT) of 7.7 nM and an IC50 (A2780 cells; Homo sapiens, A2780, 72 h) of 31.1 nM.

Work on O=C(NCc1ccc(S(=O)(=O)[C@H]2CCOC2)cc1)c1cc2ccncc2o1 [Example 230, N-[[4-[(3S)-tetrahydrofuran-3-yl]sulfonylphenyl]methyl]furo [2,3-c]pyridine-2-carboxamide] yielded an IC50 (NAMPT) of 73.8 nM and an IC50 (A2780 cells; Homo sapiens, A2780, 72 h) of 243 nM.
